The results in this text go back to patent US20260250318A1, “COMPOSITIONS AND METHODS FOR CROSSING THE BLOOD BRAIN BARRIER” (VOYAGER THERAPEUTICS, INC., priority 2022, published 2026).

What all share (settings): synthetic library passage 3, intravenous, relative to wild-type AAV9
Assay [1] deals with brain, spinal cord, and DRG of the NHPs. Put plainly: NGS fold enrichment of synthetic library (passage 3) in NHPs, first cross-species screen. It is filed as in vivo, cynomolgus macaques (Macaca fascicularis). In a few lines:
(§1)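 Synthetic capsid library (passage 3) was given intravenously […] to NHPs aged 2-4 years and to BALB/c and C57Bl/6 mice (n=3 each, 6-8 weeks). After about 28 days in vivo, tissue RNA was RT-PCR amplified and NGS-sequenced; values are fold enrichment per variant relative to wild-type AAV9.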

In assay [2] the test system is brain. Put plainly: NGS fold enrichment of synthetic library (passage 3) in BALB/c mice, first cross-species screen. It is filed as in vivo. In a few lines:
as §1

Assay [3] relates to brain. The assay is described as follows: NGS fold enrichment of synthetic library (passage 3) in C57Bl/6 mice, first cross-species screen. It is filed as in vivo. In a few lines:
as §1

[4] abbreviates: RNA from spinal cord of NHPs, NGS.
Where [5] appears, read: RNA from brain of BALB/c mice, NGS.
Where [6] appears, read: RNA from brain of C57Bl/6 mice, NGS.

As for GSSVSPSSGQNQQT, in assay [1] (RNA NGS, brain of NHPs), the “Fold enrichment over AAV9 in the brain of NHPs” value came to 2.054 fold. In assay [1] (RNA NGS, spinal cord of NHPs), the “Fold enrichment over AAV9 in the spinal cord of NHPs” value is given as 0.579 fold. Moreover, the “Fold enrichment over AAV9 in the brain of Mice (BALB/c)” value (shortened to “Fold enrichment over AAV9 … (BALB/c)”) in the assay with brain [2] (RNA NGS, brain of BALB/c mice) is listed as 0.787 fold. In the assay with brain [3] (RNA NGS, brain of C57Bl/6 mice), the “Fold enrichment over AAV9 in the brain of Mice (C57Bl/6)” value (“Fold enrichment over AAV9 … (C57Bl/6)” below) is on record as 1.064 fold.
As to GSGQNQQIGESRMT, in assay [1] (RNA from brain of NHPs, NGS), the “Fold enrichment over AAV9 in the brain of NHPs” value was 1.279 fold. Further, the “Fold enrichment over AAV9 in the spinal cord of NHPs” value in assay [1] (setting [4]) came out at 0.103 fold. Also, the “Fold enrichment over AAV9 … (BALB/c)” value in the assay with brain [2] (setting [5]) was found to be 0.453 fold. In addition, the “Fold enrichment over AAV9 … (C57Bl/6)” value in the assay with brain [3] (setting [6]) is given as 0.890 fold.
On to GSGQNQQTGLRQQT, for which the “Fold enrichment over AAV9 in the brain of NHPs” value in assay [1] (RNA NGS, brain of NHPs) stood at 1.533 fold. Further, the “Fold enrichment over AAV9 in the spinal cord of NHPs” value in assay [1] (RNA NGS, spinal cord of NHPs) came out at 2.120 fold. The “Fold enrichment over AAV9 … (BALB/c)” value in the assay on brain [2] (RNA NGS, brain of BALB/c mice) is 1.103 fold. Also, in the assay with brain [3] (RNA NGS, brain of C57Bl/6 mice), the “Fold enrichment over AAV9 … (C57Bl/6)” value is 1.217 fold.
As for GESRAVLSGQNQQT, the “Fold enrichment over AAV9 in the brain of NHPs” value in assay [1] (RNA NGS, brain of NHPs) was 1.476 fold. Moreover, in assay [1] (RNA NGS, spinal cord of NHPs), the “Fold enrichment over AAV9 in the spinal cord of NHPs” value turned out to be 0.938 fold. In addition, in the assay with brain [2] (RNA NGS, brain of BALB/c mice), the “Fold enrichment over AAV9 … (BALB/c)” value came out at 0.368 fold. For the same sequence, the “Fold enrichment over AAV9 … (C57Bl/6)” value in the assay on brain [3] (RNA NGS, brain of C57Bl/6 mice) was 0.789 fold.
For GSGQFTNAGMNQQT, in that order: 2.969 fold, 0.936 fold, 0.418 fold and 0.565 fold.
GSGQNERHLVLQQT: the “Fold enrichment over AAV9 in the brain of NHPs” value in assay [1] (RNA NGS, brain of NHPs) was 1.019 fold. Moreover, in assay [1] (RNA NGS, spinal cord of NHPs), the “Fold enrichment over AAV9 in the spinal cord of NHPs” value was determined as 5.354 fold. The “Fold enrichment over AAV9 … (BALB/c)” value in the assay with brain [2] (RNA NGS, brain of BALB/c mice) is 0.150 fold. Further, the “Fold enrichment over AAV9 … (C57Bl/6)” value with brain [3] (RNA NGS, brain of C57Bl/6 mice) was determined as 0.416 fold.
In the same order, the values of GSGMPASRLQNQQT are 1.117 fold, 1.689 fold, 0.372 fold and 0.790 fold.
With GSGQNTRLQLGQQT, in assay [1] (RNA NGS, brain of NHPs), the “Fold enrichment over AAV9 in the brain of NHPs” value was 1.452 fold. For the same sequence, the “Fold enrichment over AAV9 in the spinal cord of NHPs” value in assay [1] (RNA NGS, spinal cord of NHPs) came out at 1.747 fold. Besides, the “Fold enrichment over AAV9 … (BALB/c)” value in the assay with brain [2] (RNA NGS, brain of BALB/c mice) is 0.234 fold. Besides, the “Fold enrichment over AAV9 … (C57Bl/6)” value in the assay on brain [3] (RNA NGS, brain of C57Bl/6 mice) was 0.181 fold.
In the same order, the values of GSGQTRQMKDNQQT are 1.530 fold, 11.079 fold, 0.214 fold and 0.841 fold.
In the same order, the values of GSGQIKGKMDNQQT are 1.654 fold, 2.601 fold, 1.012 fold and 1.065 fold.
In the case of GSSQNQQHDMRLRT, in assay [1] (RNA from brain of NHPs, NGS), the “Fold enrichment over AAV9 in the brain of NHPs” value is on record as 1.386 fold. The “Fold enrichment over AAV9 in the spinal cord of NHPs” value in assay [1] (setting [4]) was 2.645 fold. Moreover, the “Fold enrichment over AAV9 … (BALB/c)” value in the assay with brain [2] (setting [5]) amounted to 0.552 fold. The “Fold enrichment over AAV9 … (C57Bl/6)” value with brain [3] (setting [6]) is given as 0.669 fold.
In the case of GSGQNQHSVQVRQT, the “Fold enrichment over AAV9 in the brain of NHPs” value in assay [1] (RNA NGS, brain of NHPs) worked out at 1.116 fold. Also, the “Fold enrichment over AAV9 in the spinal cord of NHPs” value in assay [1] (RNA NGS, spinal cord of NHPs) turned out to be 1.909 fold. Moreover, in the assay with brain [2] (RNA NGS, brain of BALB/c mice), the “Fold enrichment over AAV9 … (BALB/c)” value turned out to be 0.916 fold. For the same sequence, the “Fold enrichment over AAV9 … (C57Bl/6)” value with brain [3] (RNA NGS, brain of C57Bl/6 mice) is on record as 0.782 fold.
In the same order, the values of GSSTLVTIGKNQQT are 1.592 fold, 4.316 fold, 0.819 fold and 0.917 fold.
For GGGDLGRSSQNQQT, in that order: 3.036 fold, 4.830 fold, 0.539 fold and 0.916 fold.
In the same order, the values of GSGQNQRVSNSQQT are 2.146 fold, 0.492 fold, 0.985 fold and 1.086 fold.
Take GSGQNQQLQTLIRT: the “Fold enrichment over AAV9 in the brain of NHPs” value in assay [1] (RNA NGS, brain of NHPs) amounted to 1.538 fold. Besides, the “Fold enrichment over AAV9 in the spinal cord of NHPs” value in assay [1] (RNA NGS, spinal cord of NHPs) came out at 1.425 fold. Further, the “Fold enrichment over AAV9 … (BALB/c)” value with brain [2] (RNA NGS, brain of BALB/c mice) is 0.514 fold. In addition, the “Fold enrichment over AAV9 … (C57Bl/6)” value in the assay with brain [3] (RNA NGS, brain of C57Bl/6 mice) turned out to be 0.813 fold.
